# Reference: patent US11402382B2, “Diagnostic and therapeutic methods for cancer” (Genentech, Inc., priority 2017, dated 2022)
# What was measured:
# [1] = test system: immune and vasculature markers in mRCC tumor sections; assay: Phase Ib tumor immunohistochemistry (CD34/αSMA, CD8, Ki67/CD8, MHC-I, PD-L1); type: in vivo, human
# Procedure: Formalin-fixed, paraffin-embedded (FFPE) tissue sections of 4 μm thickness were stained for PD-L1 with an anti-human PD-L1 rabbit monoclonal antibody (clone SP142; Ventana, Tucson, Ariz.) on an automated staining platform (BenchMark; Ventana) using a concentration of […], with signal visualization by diaminobenzidine; sections were counter-stained with haematoxylin. PD-L1 expression was evaluated on tumor cells and tumor-infiltrating immune cells. […] For tumor-infiltrating immune cells, the percentage of PD-L1-positive tumor-infiltrating immune cells occupying the tumor was determined. […] Specimens were scored as IHC 0, 1, 2, or 3 if <1%, ≥1% but <5%, ≥5% but <10%, or ≥10% of cells per area were PD-L1 positive, respectively. […]
# All MHC-I IHC steps were carried out on the Ventana Discovery XT automated platform (Ventana Medical Systems; Tucson, Ariz.). […] Bound primary antibody was detected by the OMNIMAP™ anti-rabbit HRP detection kit, followed by DAB (Ventana Medical Systems; Tucson, Ariz.). […] MHC-I staining in tumor cells was scored using an H-score system. […] Relative to the overall tumor area, the percentage of cells at different staining intensities was determined by visual assessment. […] Cases were scored by two independent pathologists. […]
# [2] = test system: vascular signature, Th1 chemokine, CD8 T-effector and NK cell genes in mRCC tumor biopsies; assay: Phase Ib tumor biopsy gene expression analysis (Fluidigm PCR panel, NanoString panel); type: in vivo, human
# Procedure: RNA isolation was performed as described by Schleifman et al. (PLoS One 8:e74231, 2014). Briefly, tumor FFPE sections were macro dissected to enrich for neoplastic tissue, and tissue was lysed using tumor lysis buffer and Proteinase K to allow for complete digestion and release of nucleic acids. RNA was isolated using the High Pure FFPE RNA Micro Kit (Roche Applied Sciences, Indianapolis, Ind.) according to the manufacturer's protocol. DNA was isolated using the QIAAMP® DNA FFPE Tissue Kit (Qiagen, Hilden, Germany) according to the manufacturer's protocol. RNA and DNA were stored at 280 uC until the analyses were performed.
# Gene-expression analysis was performed using the BioMark HD™ real-time PCR Platform (Fluidigm) as described by Schleifman et al. (PLoS One 8:e74231, 2014). All TAQMAN® assays in the expression panel used FAM™ dye-labeled TAQMAN® minor groove binder (MGB) probes and ordered through Life Technologies either made-to-order or custom-designed, including four reference genes: SP2, GUSB, TMEM55B and VPS33B. A geometric median of the Ct values for the four reference genes (SP2, GUSB, TMEM55B and VPS33B) was calculated for each sample, and expression levels were determined using the delta Ct (ΔCt) method as follows: Ct (target Gene)2GeoMedian Ct (reference genes). Median mRNA expression levels (as measured by immunochip (iChip)) across patients on study were used as cutoffs to derive high- versus low-expression categorization. P values were determined by t test.
# NanoString gene expression data were processed using the R/Bioconductor package “NanoStringQCPro.” Raw counts were adjusted by positive control counts before probe- and lane-specific background was calculated based on both negative controls and blank measurements. After background correction, counts were log2 transformed and normalized by housekeeping gene expression (TMEM55B, VPS33B, TBP, and TUBB).
# In addition to safety, tolerability, and clinical activity, one key objective of the phase Ib study described above was to evaluate the mechanism of combination activity. The trial design included a run-in period with bevacizumab to specifically interrogate the effects of bevacizumab on the local tumor immune microenvironment, followed by combination therapy with immune checkpoint blockade using atezolizumab. Tumor biopsies and blood were collected prior to treatment, 15-18 days following bevacizumab, and 4-6 weeks after the atezolizumab and bevacizumab combination treatment had been initiated.
# To identify tumor markers associated with bevacizumab monotherapy or combination therapy, gene expression analysis was performed using both a 90 gene PCR-based Fluidigm panel and an 800 gene custom NanoString panel. […]
substance,measurement,setting,value
"bevacizumab: recombinant humanized anti-VEGF monoclonal antibody, also known as rhuMAb VEGF or AVASTIN®","effect on vessels, dual staining of CD34 with αSMA",[1]; immature or unstable vessels (CD34+/αSMA−),primarily affected
same,MHC-I staining,[1]; on-treatment tumor vs pre-treatment,increase
same,expression of genes associated with the neo-vasculature (VEGF downstream signaling),"[2]; both on-treatment time points vs pre-treatment, all patients",significantly decreased
same,VEGF transcript expression in tumors,"[2]; normalized to housekeeping gene expression, FIG. 11",upregulation
same,consistent changes in FasL gene expression,[2]; on-treatment tumor,not observed
same,patients showing a significant increase in gene signatures related to Th1 signaling,[2]; six patients with paired biopsies,four of the six
